Results on one compound are retold here after publication PMC8251347, “Crystal structure of the ferredoxin reductase component of carbazole 1,9a-dioxygenase from Janthinobacterium sp. J3” (Acta Crystallographica. Section D, Structural Biology, 2021).

In the assay the target is T1, CARDO-RJ3 (ferredoxin reductase component of carbazole 1,9a-dioxygenase) (Janthinobacterium sp. J3, UniProt Q84II0).
T1 construct: gene carAd; full length, 329 residues, N-terminal His tag kept, expressed in E. coli (plasmid pEJ3NAd for the SeMet protein), monomer in solution; contains plant-type [2Fe-2S] cluster
T1 sequence (Q84II0 1-329): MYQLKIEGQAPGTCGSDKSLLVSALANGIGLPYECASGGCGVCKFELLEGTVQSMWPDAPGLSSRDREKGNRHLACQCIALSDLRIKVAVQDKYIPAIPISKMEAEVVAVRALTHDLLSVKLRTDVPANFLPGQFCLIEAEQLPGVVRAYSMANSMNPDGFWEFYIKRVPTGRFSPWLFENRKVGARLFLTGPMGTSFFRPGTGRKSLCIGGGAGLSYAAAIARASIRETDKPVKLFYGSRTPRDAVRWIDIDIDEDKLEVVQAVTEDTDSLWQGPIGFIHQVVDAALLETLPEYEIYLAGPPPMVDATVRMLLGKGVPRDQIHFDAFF
Put plainly: X-ray crystallography, […] A (type I crystal). Particulars: FAD-binding domain site; Ser151, Tyr165, Lys167, Ser217 hydrogen bonds; Phe135 and Phe328 stacking; [2Fe-2S] cluster present; no NAD(P)H.

As for `Cc1cc2nc3c(=O)[nH]c(=O)nc-3n(C[C@H](O)[C@H](O)[C@H](O)COP(=O)(O)OP(=O)(O)OC[C@H]3O[C@@H](n4cnc5c(N)ncnc54)[C@H](O)[C@@H]3O)c2cc1C` [FAD], the “X-ray crystallography, 2.6 A (type I crystal)” value is “The type I structure contained the [2Fe-2S] cluster and FAD”.
